Experimental data published in ChEMBL document CHEMBL3272116, “Synthesis and evaluation of brain catecholamine depletion by N-alkyl derivatives of 6-aminodopamine” (1976).

Columns and labels:
Mus musculus [1] = experiment: Depletion of norepinephrine in mouse brain at 50 ug administered intracranially at 24 hrs interval on three successive days measured 24 hrs post last dose relative to control; format: functional
Mus musculus [2] = experiment: Depletion of dopamine in mouse brain at 50 ug administered intracranially at 24 hrs interval on three successive days measured 24 hrs post last dose relative to control; format: functional

Structure (SMILES)	Activity (Mus musculus [1])	Activity (Mus musculus [2])
NCCc1cc(O)c(O)cc1N	34%	106%
Br.CNCCc1cc(O)c(O)cc1N	66%	–
CN(C)CCc1cc(O)c(O)cc1N	88%	94%
CC(C)NCCc1cc(O)c(O)cc1N	81%	–
